From US20030144360A1, “Composition and method for modulating BAR/FXR receptor activity” (Allergan Sales, Inc., priority 2001, published 2003)

How the values were obtained:
[1] = system: Caco-2 cells; experiment: Northern blot analysis of BAR/FXR target genes in differentiated Caco-2 cells; format: cell-based, human; details: for IBABP expression / SHP expression: 10 μM, 24 hours
Protocol: Caco-2 cells were maintained for 20 days post-confluence to allow differentiation. They were fed twice a week with their regular media during this period.
One day prior to treatment, confluent HepG2 and differentiated Caco-2 cells were switched to phenol red-free media containing resin-charcoal stripped FBS and then treated for and additional 24 hours with the indicated compounds. Total RNA was isolated using the Trizol reagent. Northern blots were prepared from polyA^+ RNA using the Oligotex method (Qiagen) and analyzed with the following probes: human CYP7A (accession #M93133) nucleotides 1617-2576 (Karam and Chiang, 185 Biochem. Biophys. Res. Commun. 588 (1992)), human SHP (accession #L76571) nucleotides 888-1355, human IBABP (accession # A1311734), an EST containing the entire coding sequence of IBABP.
We next tested the ability of AGN 29 and AGN 31 to regulate BAR/FXR target genes. We used the hepatoma cell line HepG2 as a hepatocyte model as this cell line has been used extensively to study cholesterol metabolism and bile acid-mediated gene regulation. We monitored the expression of two well known BAR/FXR target genes: CYP7A, the rate-limiting enzyme for bile acid synthesis, is down regulated by bile acids in HepG2 cells.

[2] = target: T1, BAR-RXRm heterodimers (Rattus norvegicus, UniProt Q62735); experiment: Co-activator (GRIP1) recruitment gel shift assay, BAR-RXRm heterodimer; format: binding; details: for recruitment of co-activator GRIP1 (gel shift): 32P-labeled IBABP IR1 response element, range of doses
T1 construct: nucleic acid regions encoding the following full-length proteins were cloned into a CMV expression vector; made in house; host or cells: receptors: in vitro translation; GST-GRIP1: E. coli
T1 sequence (Q62735 1-469): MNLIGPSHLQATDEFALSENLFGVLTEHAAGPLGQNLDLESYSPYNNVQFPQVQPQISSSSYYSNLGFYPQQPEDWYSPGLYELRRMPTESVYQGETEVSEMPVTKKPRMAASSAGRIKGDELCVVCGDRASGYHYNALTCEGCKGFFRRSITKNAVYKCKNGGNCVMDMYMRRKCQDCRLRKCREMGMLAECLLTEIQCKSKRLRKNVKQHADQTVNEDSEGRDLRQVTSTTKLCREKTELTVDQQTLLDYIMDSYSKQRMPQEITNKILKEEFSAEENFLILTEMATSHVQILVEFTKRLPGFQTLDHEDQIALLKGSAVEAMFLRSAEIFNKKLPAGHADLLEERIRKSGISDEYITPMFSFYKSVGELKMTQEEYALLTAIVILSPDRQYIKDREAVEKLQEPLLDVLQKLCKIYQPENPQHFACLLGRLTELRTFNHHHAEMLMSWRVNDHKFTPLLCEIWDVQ
T1 sequence (P19793 1-462 D322P partner): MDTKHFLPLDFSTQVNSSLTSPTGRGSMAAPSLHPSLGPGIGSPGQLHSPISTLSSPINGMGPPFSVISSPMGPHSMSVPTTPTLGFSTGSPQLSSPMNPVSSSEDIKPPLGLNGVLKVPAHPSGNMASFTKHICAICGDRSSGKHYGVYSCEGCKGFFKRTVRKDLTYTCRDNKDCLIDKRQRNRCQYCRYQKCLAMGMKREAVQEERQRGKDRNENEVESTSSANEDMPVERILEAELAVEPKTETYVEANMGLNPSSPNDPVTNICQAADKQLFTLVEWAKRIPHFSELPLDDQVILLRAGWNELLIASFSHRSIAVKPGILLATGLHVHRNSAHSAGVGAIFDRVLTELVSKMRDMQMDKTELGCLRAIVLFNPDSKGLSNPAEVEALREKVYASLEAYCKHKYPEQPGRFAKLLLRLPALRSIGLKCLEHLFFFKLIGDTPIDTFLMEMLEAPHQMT
From the text: Coactivators, which bind agonist-activated nuclear receptors including, without limitation, RAR and RXR, function to assist the activated nuclear receptor exert its activity as a transcription factor. Characterized co-activators include CBP, p300, RIP140, SRC-1, ACTR, TIF2 (also called GRIP 1) and TIFI. In most cases coactivator will not bind the receptor in the absence of an agonist, moreover, receptor antagonists will often block coactivator binding, either directly or through the recruitment of a corepressor. Coactivator recruitment assays are therefore a valuable method for directly visualizing associative changes to a receptor caused by the addition of a prospective ligand.
GRIP 1 was expressed as a fusion protein with glutathione-S-transferase, an enzyme which selectively binds glutathione and can thus be used as an affinity reagent. See e.g., U.S. Pat. No. 5,654,176. The GST-GRIP1 fusion protein was expressed in E. coli and purified on glutathione-Sepharose columns. In vitro translated BAR/FXR\RXR (0.6-1.2 μl each) and GST-GRIP 1 (5 μg) were incubated for 30 min at room temperature with 100,000 cpm of the E. coli DNA polymerase Klenow fragment-labeled probes in 10 mM Tris (pH 8.0), 50 mM KCl, 6% glycerol, 0.05% NP-40, 1 mM DTT, 12.5 ng/μl poly dI-dC, and the indicated ligands. Complexes were electrophoresed through 5% polyacrylamide gel in […] (45 mM Tris-base, 45 mM boric acid, 1 mM EDTA) at room temperature. […]
To address the question of whether the two identified compounds are ligands for BAR, we used an in vitro co-activator recruitment assay. […] Because the association between co-activator and receptor results in the formation of a new higher molecular weight species, the ligand-dependent recruitment of co-activator can be detected in gel shift assays and is commonly used as an indicator for ligand binding. […]

Row | Compound | IBABP expression [1] | SHP expression [1] | recruitment of co-activator GRIP1 (gel shift) [2] | basal SHP levels ([1]; 1 μM AGN 34, 24 hours) | CDCA-induced IBABP levels ([1]; 100 μM CDCA + 1 μM AGN34, 24 hours) | competition (GRIP1 displacement) with BAR/RXRm heterodimer ([2]; AGN 29 as agonist, increasing AGN 34)
1 | Cc1cc2c(cc1/C(=C/c1ccc(C(=O)O)cc1)[Si](C)(C)C)C(C)(C)CCC2(C)C [AGN 29, (Z)-4-[2-(3,5,5,8,8-Pentamethy1-5,6,7,8-tetrahydronaphthalen-2-yl)-2-(trimethylsilyl)vinyl]benzoic Acid] | strongly induced | strongly induced | shifted the majority of the complexes |  |  | 
2 | CCCC/C(=C\c1ccc(C(=O)O)cc1)c1ccc2c(c1)C(C)(C)CCC2(C)C [AGN 31, 4-[2-(5,5,8,8-Tetramethyl-5,6,7,8-tetrahydronaphthalen-2-yl)hex-1-enyl]benzoic Acid] | strongly induced | strongly induced | shifted the majority of the complexes |  |  | 
3 | CCCCCCOc1c(\C(C)=C/C=C/C(C)=C/C(=O)O)cc(C(C)C)cc1C(C)C [AGN 34, (2E, 4E, 6Z)-7-(2-Hexyloxy-3,5-diisopropylphenyl)-3-methylocta-2,4,6-trienoic Acid] |  |  |  | did not affect | reduced the induced IBABP levels close to basal levels | same results
